Experimental data taken from publication PMC8563940 (Scientific Reports, 2021).

Experiments:
Assay type in all cases: biochemical
[1] = target: T1, human butyrylcholinesterase (hBChE) (Homo sapiens, UniProt P06276); test: Progressive inhibition of hBChE by organophosphorus pesticides (Ellman method); settings: for kinact/KI: read-out: ki, overall second-order rate constant of inhibition (converted)
T1 construct: hBChE derived from purified human plasma; from tissue; host or cells: human plasma

[2] = target: T2, human acetylcholinesterase (hAChE) (Homo sapiens, UniProt P22303); test: Progressive inhibition of hAChE by organophosphorus pesticides (Ellman method); settings: 25 °C, ± SEM; for kinact/KI: read-out: ki, overall second-order rate constant of inhibition (converted)
T2 construct: made in house

[3] = target: fenamiphos-inhibited hAChE (Homo sapiens, UniProt P22303)
human AChE = human AChE (Homo sapiens, UniProt P22303)
[4] = target: methamidophos-inhibited hAChE (Homo sapiens, UniProt P22303)
Chain of methamidophos-inhibited hAChE (P22303 32-614): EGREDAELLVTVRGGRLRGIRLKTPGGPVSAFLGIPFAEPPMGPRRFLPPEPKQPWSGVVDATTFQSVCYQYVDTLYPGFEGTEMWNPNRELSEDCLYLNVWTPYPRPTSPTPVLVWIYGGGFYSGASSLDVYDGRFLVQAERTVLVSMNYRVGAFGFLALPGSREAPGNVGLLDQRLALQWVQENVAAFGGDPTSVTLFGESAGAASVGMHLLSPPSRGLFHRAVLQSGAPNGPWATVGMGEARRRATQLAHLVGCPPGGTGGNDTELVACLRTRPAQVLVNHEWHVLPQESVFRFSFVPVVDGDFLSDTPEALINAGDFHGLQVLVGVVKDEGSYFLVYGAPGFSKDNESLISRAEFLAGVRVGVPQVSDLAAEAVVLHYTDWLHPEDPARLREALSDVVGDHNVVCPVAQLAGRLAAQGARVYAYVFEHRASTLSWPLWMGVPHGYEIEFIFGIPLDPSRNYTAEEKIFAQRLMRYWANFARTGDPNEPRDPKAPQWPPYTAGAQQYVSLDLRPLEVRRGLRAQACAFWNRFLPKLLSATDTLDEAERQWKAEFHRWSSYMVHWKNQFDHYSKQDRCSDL

Chain of human AChE (P22303 32-614): as above
T2 sequence (P22303 32-614): as above
Chain of fenamiphos-inhibited hAChE (P22303 32-614): as above
T1 sequence (P06276 29-602): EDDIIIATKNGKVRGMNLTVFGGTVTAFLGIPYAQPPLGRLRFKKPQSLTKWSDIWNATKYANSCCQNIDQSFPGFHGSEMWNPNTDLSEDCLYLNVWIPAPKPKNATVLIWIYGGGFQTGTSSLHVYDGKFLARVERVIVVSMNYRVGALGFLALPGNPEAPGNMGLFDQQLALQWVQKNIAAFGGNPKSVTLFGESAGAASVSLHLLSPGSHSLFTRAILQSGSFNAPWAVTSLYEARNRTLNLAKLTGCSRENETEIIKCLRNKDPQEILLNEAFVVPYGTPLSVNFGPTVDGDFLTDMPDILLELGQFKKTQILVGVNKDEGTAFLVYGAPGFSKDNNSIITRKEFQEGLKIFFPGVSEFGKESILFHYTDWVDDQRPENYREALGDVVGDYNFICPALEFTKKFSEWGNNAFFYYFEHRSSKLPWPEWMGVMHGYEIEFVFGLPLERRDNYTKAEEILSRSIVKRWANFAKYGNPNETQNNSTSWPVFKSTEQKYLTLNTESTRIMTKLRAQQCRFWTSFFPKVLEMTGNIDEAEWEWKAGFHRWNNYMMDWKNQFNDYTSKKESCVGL

| SMILES | kmax, first-order inhibition constant ([1]; hBChE, 25 °C, ± SEM) [min⁻¹] | Reactmax (screening) [3] [%] | Reactmax, maximal percentage of reactivation [3] [%] | k2, maximal first-order reactivation rate constant [3] [min⁻¹] | kobs, observed reactivation rate (screening) [3] [min -1] | kr, overall second-order reactivation rate constant [3] [M⁻¹ s⁻¹] | t, time to achieve maximum of reactivation (screening) [3] [h] | Inhibition of AChE with oxime (human AChE) [%] | Reactmax (screening) [4] [%] | Reactmax, maximal percentage of reactivation [4] [%] | k2, maximal first-order reactivation rate constant [4] [min⁻¹] | kobs, observed reactivation rate (screening) [4] [min -1] | kr, overall second-order reactivation rate constant [4] | t, time to achieve maximum of reactivation (screening) [4] [h] | also measured |
| --- | --- | --- | --- | --- | --- | --- | --- | --- | --- | --- | --- | --- | --- | --- | --- |
| CCCSP(=O)(OCC)SCCC [Ethoprophos, ethoprophos] | 0.58 ± 0.05 |  |  |  |  |  |  |  |  |  |  |  |  |  | Ki [1]: 36.4 ± 6.68 µM |
| CCOP(=O)(NC(C)C)Oc1ccc(SC)c(C)c1 (stereo not shown) [Fenamiphos, fenamiphos] | 0.16 ± 0.01 |  |  |  |  |  |  |  |  |  |  |  |  |  | ki, overall second-order rate constant of inhibition [2]: 3,982 ± 264 min^-1 M^-1; kmax, first-order inhibition constant [2]: 0.21 ± 0.01 min⁻¹; ki, overall second-order rate constant of inhibition ([1]; hBChE, 25 °C, ± SEM): 35,890 ± 8,484 min^-1 M^-1 |
| COP(N)(=O)SC (stereo not shown) [Methamidophos, methamidophos] |  |  |  |  |  |  |  |  |  |  |  |  |  |  | kinact/KI [2]: 46 M⁻¹ s⁻¹; ki lower than that of fenamiphos ([1]; hBChE): 90 fold; kinact/KI ([1]; hBChE, 25 °C, ± SEM): 6.43 M⁻¹ s⁻¹ |
| C[n+]1ccccc1C=NO [Oxime 2-PAM] |  | 46 | 70 | 0.003 ± 0.0002 | 0.0011 | 0.125 ± 0.025 | 20 | 11 | 86 | 80 | 2.7 ± 0.2 | 1.1558 | 42,190 ± 2,547 min^−1 M^−1 | 0.36 |  |
| ON=Cc1cc[n+](CCn2cc(C[n+]3ccccc3C=NO)nn2)cc1 [Oxime 14A] |  | 42 | 45 | 0.069 ± 0.034 | 0.0062 | 1.43 ± 0.413 | 3 | 10 | 68 | 85 | 22.2 ± 3.8 | 6.7944 | 108,300 ± 17,090 min^−1 M^−1 | 0.08 |  |
| CCOP(=S)(OCC)SCn1c(=O)oc2cc(Cl)ccc21 [Phosalone, phosalone] | 0.23 ± 0.02 |  |  |  |  |  |  |  |  |  |  |  |  |  | kinact/KI [2]: 35.5 M⁻¹ s⁻¹; Ki [1]: 97.9 ± 15.3 µM; kinact/KI ([1]; hBChE, 25 °C, ± SEM): 38.9 M⁻¹ s⁻¹ |
| ON=Cc1cc[n+](CCC[n+]2ccc(C=NO)cc2)cc1 [TMB-4] |  | 49 | 65 | 0.082 ± 0.010 | 0.0177 | 2.237 ± 0.293 | 1 | 8 | 83 | 80 | 16.5 ± 6.6 | 4.2338 | 116,600 ± 12,380 min^−1 M^−1 | 0.16 |  |
